# Entries after “also recorded” stand apart in the source; their conditions may differ.
# Tests used:
# [1] = biological target: MuRF1 E3 ligase activity (Homo sapiens, UniProt Q969Q1); experiment: Inhibition of MuRF1 E3 ligase activity (ubiquitination, Western blot); format: biochemical; settings: 20-100 μmol/L compound, 1 h at 37° C., based on ubiquitination patterns
# Experimental: Compounds were then assessed for effects on MuRF1 E3 ligase activity directed to titin or to MuRF1 itself (self-ubiquitination) by mixing 75 nmol/L UBE1 (Boston Biochem), 1 μmol/L UbcH5c (Boston Biochem), 100 μmol/L Ubiquitin, 4 mmol/L ATP, 100 nmol/L Titin A168-170 with 20-100 μmol/L of respective compounds. Reactions were started by addition of 220 nmol/L MuRF1, followed by 1 h at 37° C., SDS PAGE and Western blot analysis with MuRF1 and titin specific antibodies. All reactions also included 5% DMSO.
# [2] = system: monocrotaline (MCT)-treated C57BL/6 mice; experiment: Pulmonary hypertension mouse model, test series 2; format: in vivo; settings: MCT+compound (0.1 weight-% in chow) vs MCT, 8 weeks
# Experimental: The test series 2 were performed analogous to test series 1. Briefly, Three groups of mice were included in this study: 1) saline-treated mice (sham; n=10); 2) monocrotaline (MCT)-treated mice fed with normal chow (MCT; n=10); and 3) MCT-treated mice fed with MuRF1 inhibitor chow (MCT+compound; n=10 for each compound). 8 weeks old C57BL/6 mice were subcutaneously injected weekly with either MCT (600 mg/kg) or a matched volume of saline for 8 weeks. The MCT+compound group started receiving the inhibitor chow 1 week prior to the MCT injections, whereas the sham and MCT groups were fed an identical chow but without the addition of the selected compound. The compound concentration in the chow was 0.1 weight-%, resulting in a daily compound intake per mouse of about 3 mg. Body weight was recorded every week for each mouse. Mice were sacrificed after 8 weeks treatment. At sacrifice, examination and tissue analysis were performed as described in test series 1.
# [3] = system: ICR-DIO male mice; experiment: Glucose and insulin regulation in DIO mice (fasting glucose, OGTT, ITT); format: in vivo
# Source text: Analogously to example 2.7, diabetes was induced by a high-fructose high-fat diet (HFD) for 4 months in DIO mice. The mice developed increased fasting glucose and insulin resistance. Control group animals received a normal rodent diet (regular diet). Weight loss was then induced during a 30 days test period. In a first stage, the animals were fed normal rodent diet for 16 days. Then in a second stage the animals received a low-calory diet for 14 days. Two days after start of the first stage, the diet was supplemented with MyoMed-203 (at 1 g compound/1 kg food).
# Test design: ICR-DIO male mice were randomly assigned to groups of 8-10 animals each. Three control groups were included: Control group of mice without obesity (control; regular diet (RD); n=10), obese mice fed with high-fructose high-fat diet during the entire study period (DIO HFD; n=8); and obese mice with initiated weight loss (DIO control; n=8).
# Determining the level of blood glucose was performed after 6-hour fasting. An On Call Plus glucometer (Acon Laboratories, Inc., USA) and specific test strips (REF G133-111) were used for determination of glucose levels. Blood was obtained from the tail vein by incision of the tail tip. 5-6 μl of blood were used for each assay.
# For oral glucose tolerance test (OGTT), mice were orally treated with glucose at dose of 2 g/kg at the dose volume of 10 ml/kg after a 6-hour fasting. Glucose measurements were performed immediately before treatment and at 15, 30, 60 and 120 min after glucose administration. The AUC describing the rate of blood glucose output in each mouse during the test was calculated using the formula: […]
# For insulin tolerance test (ITT), mice were injected intraperitoneally with recombinant human insulin solution (Lilly, France; REF C620001K) at the dose of 0.75 or 0.60 IU/[…] of body weight in the volume of 5 ml/kg after 6-hour fasting. Glucose measurements were performed immediately before treatment and at 15, 30, 60 and 120 min after insulin administration. The results of the rate of blood glucose output were expressed as area under the curve (AUC).
# MuRF1 E3 ligase activity, sequence (Q969Q1 whole entry): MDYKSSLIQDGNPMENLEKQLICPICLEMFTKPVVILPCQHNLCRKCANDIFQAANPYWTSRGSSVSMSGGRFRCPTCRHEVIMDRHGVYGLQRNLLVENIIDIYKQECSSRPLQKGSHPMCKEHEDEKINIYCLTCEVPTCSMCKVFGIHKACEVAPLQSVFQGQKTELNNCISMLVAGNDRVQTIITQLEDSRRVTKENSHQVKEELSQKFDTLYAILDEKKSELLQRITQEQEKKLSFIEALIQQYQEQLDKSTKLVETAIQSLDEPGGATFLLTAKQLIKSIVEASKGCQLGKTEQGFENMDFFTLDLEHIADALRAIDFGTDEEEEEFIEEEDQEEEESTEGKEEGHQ
SMILES,inhibition of MuRF1 E3 ligase activity [1],"loss of skeletal muscle mass (EDL, TA wet weight; diaphragm maximum force) [2]",right ventricle hypertrophy [2],"blood glucose level after 6-hour fasting ([3]; 1 g compound/1 kg food, vs DIO control, throughout the treatment period)",hypoglycemic effect according to OGTT ([3]; after 14 days of weight loss and treatment),"blood glucose at 30 minutes of OGTT ([3]; day 14, vs DIO control)",OGTT calculated area under the glucose elimination curve ([3]; day 28),"glucose level at 120 min of OGTT ([3]; day 28, vs all control groups)",glucose level at 120 minutes after insulin injection (ITT) ([3]; vs all control groups)
"Cc1cc(=O)oc2cc(OCc3ccc(C(=O)OC(C)C(=O)NC(N)=O)cc3)ccc12 (stereo not shown) [MyoMed-946-5, (1-methyl-2-oxo-2-ureido-ethyl) 4-[(4-methyl-2-oxo-chromen-7-yl)oxymethyl]benzoate]",significantly inhibit MuRF1 E3 ligase activity,–,–,–,–,–,–,–,–
"Cc1cc(=O)oc2cc(OCc3ccc(C(=O)OCC(=O)NC(=O)NCc4ccccn4)cc3)ccc12 [MyoMed-203, [2-oxo-2-(2-pyridylmethylcarbamoylamino)ethyl] 4-[(4-methyl-2-oxo-chromen-7-yl)oxymethyl]benzoate]",–,most pronounced effect,attenuated; also recorded: attenuate the development of right ventricle hypertrophy,significantly lower,mild hypoglycemic effect,tended to be lower,tended to be lower,significant decrease in the glucose level,significant decrease of glucose level
"CNC(=O)NC(=O)C(C)OC(=O)c1ccc(COc2ccc3c(C)cc(=O)oc3c2)cc1 (stereo not shown) [MyoMed-946-8, [1-methyl-2-(methylcarbamoylamino)-2-oxo-ethyl] 4-[(4-methyl-2-oxo-chromen-7-yl)oxymethyl]benzoate]",significantly inhibit MuRF1 E3 ligase activity,–,–,–,–,–,–,–,–

# Source: patent US12331042B2, “Compounds suitable for the treatment and prophylaxis of muscle wasting and other conditions” (priority 2019, dated 2025)
